Experimental data from patent US6806230B1, “Pyrimidine derivatives and herbicides containing them” (Kumiai Chemical Industry Co., Ltd., priority 1999, dated 2004).

Legend:
Format in all cases: in vivo
barnyard grass (Ec) [1] = assay: Test Example 2: herbicidal effects by upland soil treatment; design: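 0-5 growth inhibition grade; 5 = over 90%; 4 = 70-90%; 3 = 50-70%; 2 = 30-50%; 1 = 10-30%; 0 = under 10%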; conditions: dose 100 g active ingredient per 10 ares, examined on the 21st day after treatment, standards of Table 44
How it was run: (§1)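 Pre-emergence test: barnyard grass and green foxtail sown in upland soil, then soil surface sprayed with wettable-powder formulation at 100 g active ingredient per 10 ares (100 l per 10 ares). Grown in greenhouse; herbicidal effect scored on a rating scale 21 days after treatment.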

corn (Ze) = assay: Test Example 5: selectivity for a crop plant by soil treatment in upland field; design: scale not given here; conditions: dose 25 gai/10a, 21st day after treatment, index per Table 44
Protocol: (§2) In a 80 cm^2 plastic pot, upland soil was filled, and seeds of barnyard grass (Ec), green foxtail (Se), soybean (G1), wheat (Tr) and corn (Ze) were sown and covered with soil. A wettable powder prepared in accordance with Formulation Example 1 was diluted with water and uniformly applied to the soil surface by a small size spray at a rate of 100 l per 10 ares so that the dose of the active ingredient would be 25 g per 10 ares. Thereafter, cultivation was carried out in a green house, and on the 21st day after the treatment, the herbicidal effects were examined in accordance with the standards of Table 44.

soybean (G1) = assay: as above; design: scale not given here; conditions: dose 25 gai/10a, 21st day after treatment, index per Table 44
Protocol: as §2

wheat (Tr) = assay: as above; design: scale not given here; conditions: dose 25 gai/10a, 21st day after treatment, index per Table 44
Protocol: as §2

barnyard grass (Ec) [2] = assay: as above; design: scale not given here; conditions: dose 25 gai/10a, 21st day after treatment, index per Table 44
Protocol: as §2

green foxtail (Se) = assay: Test Example 2: herbicidal effects by upland soil treatment; conditions: dose 100 g active ingredient per 10 ares, examined on the 21st day after treatment, standards of Table 44;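 also: 0-5 growth inhibition grade; 5 = over 90%; 4 = 70-90%; 3 = 50-70%; 2 = 30-50%; 1 = 10-30%; 0 = under 10%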
How it was run: as §1

monochoria (Mo) [3] = assay: Test Example 1: herbicidal effects by flooded paddy field treatment; conditions: dose 100 gai/10a, examined on 21st day after treatment, index 0-5 per Table 44;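 also: 0-5 growth inhibition grade; 5 = over 90%; 4 = 70-90%; 3 = 50-70%; 2 = 30-50%; 1 = 10-30%; 0 = under 10%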
How it was run: (§3)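 Puddled paddy soil in pots, seeds sown, 3 cm flood. Day after sowing: wettable powder diluted in water, applied dropwise to water surface, 100 g a.i./10 ares. Greenhouse; visual herbicidal rating at day 21 post-treatment.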

barnyard grass (Ec) [4] = assay: Test Example 3: herbicidal effects by foliage treatment in upland field; design: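 0-5 growth inhibition grade; 5 = over 90%; 4 = 70-90%; 3 = 50-70%; 2 = 30-50%; 1 = 10-30%; 0 = under 10%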; conditions: dose 100 g active ingredient per 10 ares, examined on the 14th day after treatment
How it was run: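 Barnyard grass and green foxtail were grown in upland soil for 2 weeks in a greenhouse. A water-diluted wettable powder was sprayed over the foliage at 100 l per 10 ares, giving 100 g active ingredient per 10 ares. Herbicidal effect was scored on day 14 after treatment.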

barnyard grass (Eo) [5] = assay: Test Example 1: herbicidal effects by flooded paddy field treatment; conditions: dose 100 gai/10a, examined on 21st day after treatment, index 0-5 per Table 44;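 also: 0-5 growth inhibition grade; 5 = over 90%; 4 = 70-90%; 3 = 50-70%; 2 = 30-50%; 1 = 10-30%; 0 = under 10%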
How it was run: as §3

rice (Or) = assay: Test Example 4: selectivity for a crop plant by flooded paddy field treatment; design: scale not given here; conditions: rice transplanted at second leaf stage; for Or (effect on crop plant rice, index): dose 25 g active ingredient per 10 ares, examined on the 21st day after treatment
How it was run: (§4)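 Flooded paddy pots, 3 cm water; weeds sown from seed, rice transplanted at 2nd-leaf stage. Day after: wettable powder diluted in water, applied dropwise to water surface, 25 g a.i./10 a. Greenhouse; herbicidal effect rated at day 21.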

monochoria (Mo) [6] = assay: as above; design: scale not given here; conditions: for Mo (herbicidal effects, index): dose 25 g active ingredient per 10 ares, examined on the 21st day after treatment
How it was run: as §4

barnyard grass (Eo) [7] = assay: as above; design: scale not given here; conditions: for Eo (herbicidal effects, index): dose 25 g active ingredient per 10 ares, examined on the 21st day after treatment
How it was run: as §4

| Structure (SMILES) | herbicidal effects, Ec (barnyard grass) (barnyard grass (Ec) [1]) | Ze (herbicidal effect index on crop) (corn (Ze)) | Gl (herbicidal effect index on crop) (soybean (G1)) | Tr (herbicidal effect index on crop) (wheat (Tr)) | Ec (herbicidal effect index) (barnyard grass (Ec) [2]) | herbicidal effects, Se (green foxtail) (green foxtail (Se)) | Herbicidal effect index, Mo (monochoria (Mo) [3]) | Ec (herbicidal effects, index) (barnyard grass (Ec) [4]) | Herbicidal effect index, Eo (barnyard grass (Eo) [5]) | Or (effect on crop plant rice, index) (rice (Or)) | Mo (herbicidal effects, index) (monochoria (Mo) [6]) | Eo (herbicidal effects, index) (barnyard grass (Eo) [7]) | Or (herbicidal effect index on crop) (rice (Or); dose 25 gai/10a, 21st day after treatment, index per Table 44) | Mo (herbicidal effect index) (monochoria (Mo) [6]; monochoria, dose 25 gai/10a, 21st day after treatment, index per Table 44) | Eo (herbicidal effect index) (barnyard grass (Eo) [7]; barnyard grass, dose 25 gai/10a, 21st day after treatment, index per Table 44) |
| --- | --- | --- | --- | --- | --- | --- | --- | --- | --- | --- | --- | --- | --- | --- | --- |
| CCC(C)C(c1cncnc1C(F)(F)F)N(C)C(=O)Cc1ccc(F)cc1 (mixture of isomers) [Compound 1-58] | 5 | 0 | 0 | 3 | 5 | 5 | 5 | 4 | 5 | – | – | – | – | – | – |
| CCC(c1cncnc1C(F)(F)F)N(C)C(=O)Cc1ccc(F)cc1 (racemic) [Compound 1-33] | 5 | 1 | 0 | 2 | 4 | 5 | 5 | – | 5 | 1 | 5 | 5 | – | – | – |
| CC(C)C(c1cncnc1C(F)(F)F)N(C)C(=O)Cc1ccc(Cl)c(Cl)c1 (racemic) [Compound 1-45] | 5 | 0 | 0 | 2 | 4 | 5 | 5 | – | 5 | 0 | 5 | 5 | – | – | – |
| CCCN(C(=O)Cc1ccc(Cl)cc1)C(c1cncnc1C(F)(F)F)C(C)C (racemic) [Compound 1-49] | 5 | 3 | 1 | 0 | 5 | 4 | 5 | – | 5 | 0 | 5 | 5 | – | – | – |
| Cc1cccc(CC(=O)N(C)C(c2cncnc2C(F)(F)F)C(C)C)c1 (racemic) [Compound 1-51] | 5 | 0 | 0 | 1 | 5 | 5 | 5 | – | 5 | 1 | 5 | 5 | – | – | – |
| Cc1ncncc1C(C(C)C)N(C)C(=O)Cc1ccc(Cl)cc1 (racemic) [Compound 1-56] | 5 | 3 | 0 | 4 | 5 | 5 | 5 | 4 | 5 | – | – | – | – | – | – |
| COCc1ccc(CC(=O)N(C)C(c2cncnc2C(F)(F)F)C(C)C)cc1 (racemic) [Compound 1-76] | 5 | 2 | 0 | 2 | 4 | 5 | 5 | – | 5 | 0 | 5 | 5 | – | – | – |
| CC(C)C(c1cncnc1C(F)(F)F)N(C)C(=O)C=Cc1ccccc1 (racemic) [Compound 1-85] | 5 | 0 | 0 | 1 | 4 | 5 | 5 | – | 5 | 0 | 5 | 5 | – | – | – |
| CC(C)C(c1cncnc1C(F)(F)F)N(C)C(=O)Cc1ccc(OC(F)(F)F)cc1 (racemic) [Compound 1-95] | 5 | 0 | 1 | 0 | 5 | 5 | 5 | 5 | 5 | – | – | – | – | – | – |
| CC(C)Oc1ccc(CC(=O)N(C)C(c2cncnc2C(F)(F)F)C(C)C)cc1 (racemic) [Compound 1-97] | 5 | 0 | 3 | 1 | 4 | 5 | 5 | – | 5 | 0 | 5 | 5 | – | – | – |
| CCCN(C(=O)Cc1ccc(C#N)cc1)C(c1cncnc1C(F)(F)F)C(C)C (racemic) [Compound 1-99] | 5 | 0 | 0 | 3 | 4 | 5 | 5 | – | 5 | – | – | – | 1 | 5 | 5 |
